Data on 6 compounds can be found in patent US7981886B2, “Antibiotics derivatives” (Actelion Pharmaceutical Ltd., priority 2005, dated 2011).

SMILES strings stand for the structures. Converted amounts (≈) assume the structure as drawn.

Holding throughout (assay type): cell-based
Assay [1] relates to M. catarrhalis A894. Nature of the assay: MIC by microdilution (NCCLS), M. catarrhalis A894. As to conditions: Moraxella catarrhalis, cation-adjusted Mueller-Hinton Broth, pH 7.2-7.3. As for the experimental part:
(§1) These assays have been performed following the description given in “Methods for dilution Antimicrobial Susceptibility Tests for Bacteria that Grow Aerobically, 4th ed.; Approved standard: NCCLS Document M7-A4; National Committee for Clinical Laboratory Standards Villanova, Pa., USA, 1997”. Minimal inhibitory concentrations (MICs; mg/l) were determined in cation-adjusted Mueller-Hinton Broth (BBL) by a microdilution method following NCCLS guidelines (National Committee for Clinical Laboratory Standards. Methods for Dilution Antimicrobial Susceptibility). The pH of the test medium was 7.2-7.3.
(§2) All Examples were tested against several Gram positive and Gram negative bacteria.
(In general: Dilution methods test growth across graded concentrations, often in twofold steps.)

Assay [2] concerns S. pneumoniae 49619. Nature of the assay: MIC by microdilution (NCCLS), S. pneumoniae 49619. As to conditions: Streptococcus pneumoniae, cation-adjusted Mueller-Hinton Broth, pH 7.2-7.3. The method, then:
as §1, §2

The test system of assay [3] is S. aureus 29213. Nature of the assay: MIC by microdilution (NCCLS), S. aureus 29213. As to conditions: Staphylococcus aureus, cation-adjusted Mueller-Hinton Broth, pH 7.2-7.3. As for the experimental part:
as §1, §2

Assay [4] relates to P. aeruginosa 27853. Nature of the assay: MIC by microdilution (NCCLS), P. aeruginosa 27853. As to conditions: Pseudomonas aeruginosa, cation-adjusted Mueller-Hinton Broth, pH 7.2-7.3. As for the experimental part:
as §1, §2

Assay [5] relates to S. aureus A798. In words: MIC by microdilution (NCCLS), S. aureus A798. As to conditions: Staphylococcus aureus, cation-adjusted Mueller-Hinton Broth, pH 7.2-7.3. As for the experimental part: as §1, §2
Assay [6] deals with H influenzae A921. Nature of the assay: MIC by microdilution (NCCLS), H influenzae A921. As to conditions: cation-adjusted Mueller-Hinton Broth, pH 7.2-7.3. The method, then: as §1, §2
Assay [7] has as its system E. faecalis 29212. Nature of the assay: MIC by microdilution (NCCLS), E. faecalis 29212. As to conditions: Enterococcus faecalis, cation-adjusted Mueller-Hinton Broth, pH 7.2-7.3. As for the experimental part: as §1, §2
The test system of assay [8] is E. coli 25922. Nature of the assay: MIC by microdilution (NCCLS), E. coli 25922. As to conditions: Escherichia coli, cation-adjusted Mueller-Hinton Broth, pH 7.2-7.3. The method, then: as §1, §2
Assay [9] concerns E. faecium A949. In words: MIC by microdilution (NCCLS), E. faecium A949. As to conditions: Enterococcus faecium, cation-adjusted Mueller-Hinton Broth, pH 7.2-7.3. As for the experimental part:
as §1, §2

As to `O=C1CSc2ccc(CNC3CCC(C(=O)c4nc5ccccc5s4)CC3)cc2N1` (stereo not drawn) [Example 1, 6-{[4-(benzothiazole-2-carbonyl)-cyclohexylamino]-methyl}-4H-benzo[1,4]thiazin-3-one], the MIC in [1] was no more than 0.031 µg/mL; in assay [2] it was 2 µg/mL (≈ 4.57 µM); in assay [3], 0.25 µg/mL (≈ 0.571 µM); in assay [4], 16 µg/mL (≈ 36.6 µM); in assay [5] it was 0.125 µg/mL (≈ 0.286 µM); in assay [6] it was 0.063 µg/mL (≈ 0.144 µM). Moreover, the MIC in assay [7] came to 0.5 µg/mL (≈ 1.14 µM); in [8], 0.5 µg/mL (≈ 1.14 µM); in assay [9], 1 µg/mL (≈ 2.29 µM).

Turning to `Cc1cccc2sc(C(=O)[C@H]3CC[C@H](NCc4ccc5c(c4)NC(=O)CS5)CC3)nc12` [Example 4, 6-{[trans-4-(4-methyl-benzothiazole-2-carbonyl)-cyclohexylamino]-methyl}-4H-benzo[1,4]thiazin-3-one], the MIC is no more than 0.031 µg/mL in assay [1]; 1 µg/mL (≈ 2.21 µM) in assay [2]; 0.125 µg/mL (≈ 0.277 µM) in [3]; 4 µg/mL (≈ 8.86 µM) in assay [4]; 0.063 µg/mL (≈ 0.139 µM) in assay [5]; 0.25 µg/mL (≈ 0.554 µM) in [6]. Moreover, the MIC in assay [7] turned out to be 0.5 µg/mL (≈ 1.11 µM); in assay [8], 1 µg/mL (≈ 2.21 µM); in assay [9], 0.25 µg/mL (≈ 0.554 µM).

In the case of `COc1cccc2sc(C(=O)[C@H]3CC[C@H](NCc4ccc5c(n4)NC(=O)CS5)CC3)nc12` [Example 23, 6-{[trans-4-(4-methoxy-benzothiazole-2-carbonyl)-cyclohexylamino]-methyl}-4H-pyrido[3,2-b][1,4]thiazin-3-one], the MIC in assay [1] was 0.25 µg/mL (≈ 0.533 µM); in assay [2] it was 4 µg/mL (≈ 8.54 µM); in assay [3] it was 1 µg/mL (≈ 2.13 µM); in assay [4] it was greater than 16 µg/mL; in assay [5] it was 0.5 µg/mL (≈ 1.07 µM); in assay [6] it was 8 µg/mL (≈ 17.1 µM). Further, the MIC in assay [7] stood at 8 µg/mL (≈ 17.1 µM); in assay [8] it was 16 µg/mL (≈ 34.1 µM); in assay [9], 8 µg/mL (≈ 17.1 µM).

On to `COc1cccc2sc(O[C@H]3CC[C@H](NCc4ccc5c(c4)NC(=O)CS5)CC3)nc12` [Example 28, 6-{[trans-4-(4-methoxy-benzothiazol-2-yloxy)-cyclohexylamino]-methyl}-4H-benzo[1,4]thiazin-3-one], for which the MIC in assay [1] was 0.125 µg/mL (≈ 0.274 µM); in [2] it was 16 µg/mL (≈ 35.1 µM); in [3], 8 µg/mL (≈ 17.6 µM); in assay [4], greater than 16 µg/mL; in assay [5] it was 1 µg/mL (≈ 2.19 µM); in assay [6] it was 16 µg/mL (≈ 35.1 µM). Also, the MIC in [7], in assay [8] and in [9] was 16 µg/mL (≈ 35.1 µM) each time.

With `COc1cccc2sc(C(=O)[C@@H]3CC[C@@H](NCc4ccc5c(n4)NC(=O)CS5)CO3)nc12` [Example 29, (3R,6S)-6-{[6-(4-methoxy-benzothiazole-2-carbonyl)-tetrahydro-pyran-3-ylamino]-methyl}-4H-pyrido[3,2-b][1,4]thiazin-3-one], the MIC in [1] is 0.125 µg/mL (≈ 0.266 µM); in [2] it was 4 µg/mL (≈ 8.5 µM); in [3], 1 µg/mL (≈ 2.13 µM); in assay [4] it was greater than 16 µg/mL; in [5] it was 2 µg/mL (≈ 4.25 µM); in assay [6] it was 2 µg/mL (≈ 4.25 µM). The results for the MIC in assay [7], in assay [8] and in [9] were 2 µg/mL (≈ 4.25 µM), 16 µg/mL (≈ 34 µM) and 1 µg/mL (≈ 2.13 µM), respectively.

As for `COc1cccc2sc(C(=O)C3CCN(CC(=O)c4ccc5c(c4)NC(=O)CO5)CC3)nc12` [Example 34, 6-{2-[4-(4-methoxy-benzothiazole-2-carbonyl)-piperidin-1-yl]-acetyl}-4H-benzo[1,4]oxazin-3-one], the MIC in assay [1] was 0.25 µg/mL (≈ 0.537 µM); in assay [2], 16 µg/mL (≈ 34.4 µM); in assay [3], 1 µg/mL (≈ 2.15 µM); in [4], greater than 16 µg/mL; in assay [5], 2 µg/mL (≈ 4.3 µM); in assay [6] it was 2 µg/mL (≈ 4.3 µM). For the same compound, the MIC in assay [7] came out at 16 µg/mL (≈ 34.4 µM); in assay [8], 16 µg/mL (≈ 34.4 µM); in assay [9], 4 µg/mL (≈ 8.59 µM).
